# Source: patent publication US7321027B2, “Small technetium-99m and rhenium labeled agents and methods for imaging tumors” (President and Fellows of Harvard College, priority 2000, dated 2008)
# Columns and labels:
# [1] = system: B16/F0 murine melanoma cells; test: In-vitro tumor-cell uptake, melanoma cells; type: cell-based; settings: 37° C., B16/F0 cell line
# Description: In-Vitro Tumor-Uptake Studies. Tumor-cell uptake studies in B16/F0 murine melanoma cells were performed with complexes Tc-(Compound A-D and H-M) at 37° C. and 4° C. Additionally, tumor-cell uptake of complex Tc-(Compound A) was investigated in another rapidly dividing MCF-7 human breast cancer cell line.
# In-Vitro Cell Studies. Murine B16/F0 melanoma cells and human MCF-7 breast cancer cells were obtained from American Type Culture Collection, Manassas Va., (ATCC) and were grown in T-175 flasks in 14 mL Dulbecco's Modified Eagle Medium (D-MEM; Gibco, Life Technology, Gaithersburg, Md.) containing 4500 mg/L D-glucose, L-glutamine, and pyridoxine hydrochloride, 110 mg/L sodium pyruvate, 10% fetal bovine serum (FBS), 0.2% gentamicin and 0.5% penicillin-streptomycin solution. All cells were harvested from cell culture flasks by trypsinization with 1 mL trypsin-EDTA solution (0.25% trypsin, 1 mM EDTA×4 Na) (Gibco). After being washed with 12 mL Dulbecco's Phosphate-Buffered Saline (PBS) (Gibco), pH 7.2 (Ca^2+- and Mg^2+-free; g/L KCl, 0.20; KH2PO4, 0.20; NaCl, 8.00; Na2HPO4, 1.15), the cells were counted and resuspended in 8 mL S-MEM (Gibco) (Ca^2+ free, with reduced Mg^2+ content) and stored at 4° C. until use.
# For in-vitro tumor-cell accumulation studies, 5×10^6 cells in polypropylene test tubes were incubated at 37° C. or 4° C., with intermittent agitation with 1-2 μCi (5 μL) ^99mTc-complex Tc-(Compound A-D) in a total volume of 350 μL S-MEM. At appropriate time intervals the tubes were vortexed and 8-μL samples were layered on 350 μL cold FBS in a 400-μL Eppendorf microcentrifuge tube. After centrifugation at 15,000 rpm for 2 min, the tubes were frozen in a dry ice-acetone bath. While still frozen, the bottom tip of the microcentrifuge tube containing the cell pellet was cut and placed in a counting tube. The remaining portion of the tube with the supernatant was placed in a separate counting tube. Both fractions were counted for radioactivity in a γ-counter (WALLAC, 1480 WIZARD 3″™). The amount of supernatant in the cell pellet was determined to be <1% in separate experiments. The percentage cell uptake of the ^99mTc-complex was calculated as: % uptake=[cpm(pellet)]/[cpm(pellet)+cpm(supernatant)]×100
# [2] = Determination of lipophilicity and pKa values by HPLC; type: physicochemical; settings: HPLC method
# Description: The physicochemical parameters of the rhenium complexes, i.e. lipophilicity log P, log D(pH 7.4), and pKa (Table 2) were determined using HPLC methods (Braumann, T.; Grimme, L. H. Determination of Hydrophobic Parameters for Pyridazinone Herbicides by Liquid-Liquid Partition and Reversed-Phase High-Performance Liquid Chromatography. J. Chromatogr. 1981, 206, 7-15; Stytli, C.; Theobald, A. E. Determination of Ionization Constants of Radiopharmaceuticals in Mixed Solvents by HPLC. Appl. Radiat. Isot., 1987, 38, 701-708; Johannsen, B.; Scheunemann, M.; Spies, H.; Brust, P.; Wober, J.; Syhre, R.; Pietzsch, H.-J. Technetium(V) and Rhenium(V) Complexes for 5-HT2A Serotonin Receptor Binding: Structure-Affinity Considerations. Nucl. Med. Biol., 1996, 23, 429-438; and Johannsen, B.; Berger, R.; Brust, P.; Pietzsch, H.-J; Scheunemann, M.; Seifert, S.; Spies, H.; Syhre, R. Structural Modification of Receptor-Binding Technetium-99m Complexes in Order to Improve Brain Uptake. Eur. J. Nucl. Med. 1997, 24, 316-319). […] Since log D(pH 7.4) is a composite measure of log P and pKa, the log D(PH 7.4) of Re-Compound B (1.9) is also higher than that of Re-Compound A (1.1). […] With pKa values >9 for complexes Re-Compound C and Re-Compound D, the resulting low log D(PH 7.4) values of −0.5 (Re-Compound C) and 0.7 (Re-Compound D) are not surprising, since the complexes would exist in a protonated form at pH 7.4.
# Determination of Lipophilicity and pKa Values. The lipophilicity and pKa values of all complexes were determined using HPLC methods described previously (Stylli, C.; Theobald, A. E. Determination of Ionization Constants of 4 Radiopharmaceuticals in Mixed Solvents by HPLC. Appl. Radiat. Isot., 1987, 38, 701-708; Johannsen, B.; Scheunemann, M.; Spies, H.; Brust, P.; Wober, J.; Syhre, R.; Pietzsch, H.-J. Technetium(V) and Rhenium(V) Complexes for 5-HT2A Serotonin Receptor Binding: Structure-Affinity Considerations. Nucl. Med. Biol., 1996, 23, 429-438; and Johannsen, B.; Berger, R.; Brust, P.; Pietzsch, H.-J.; Scheunemann, M.; Seifert, S.; Spies, H.; Syhre, R. Structural Modification of Receptor-Binding Technetium-99m Complexes in Order to Improve Brain Uptake. Eur. J. Nucl. Med. 1997, 24, 316-319). […] The mobile phase was acetonitrile:phosphate buffer (0.01 M), 3:1, v/v, with the aqueous buffer adjusted to the desired pH between 3 and 11. The capacity factor (k′) was calculated for each determination (Braumann, T.; Grimme, L. H. Determination of Hydrophobic Parameters for Pyridazinone Herbicides by Liquid-Liquid Partition and Reversed-Phase High-Performance Liquid Chromatography. J. Chromatogr. 1981, 206, 7-15; El Tayer, N.; van der Waterbeemd, H.; Testa, B. Lipophilicity Measurements of Protonated Basic Compounds by Reversed-Phase High-Performance Liquid Chromatography. II. Procedure for the Determination of a Lipophilic Index Measured by Reversed-Phase High Performance Liquid Chromatography. J. Chromatogr. 1985, 320, 305-312; and Minick, D. J.; Frenz, J. H.; Patrick, M. A.; Brent, D. A. A Comprehensive Method for Determining Hydrophobicity Constants by Reversed-Phase High-Performance Liquid Chromatography. J. Med. Chem., 1988, 31, 1923-1933) and the partition coefficient at a given pH (D or log D) were calculated from the equation: log D=a log k′+b where the parameters a and b are predetermined using standard amines. The fitted points of inflection from the sigmoidal DHPLC/pH profiles permit calculation of the pKHPLC(Stylli, C.; Theobald, A. E. Determination of Ionization Constants of Radiopharmaceuticals in Mixed Solvents by HPLC. Appl. Radiat. Isot., 1987, 38, 701-708). The aqueous ionization constants pKa were calculated from the pKHPLC values after correction with a predetermined correction factor obtained using standard amine compounds. Log P values of the neutral complexes were estimated from the respective upper plateau of the sigmoidal log D/pH curve in the alkaline range.
SMILES,maximal cell uptake [1] [%],pKa [2],log D(pH 7.4) [2],log P [2]
CCN(CC)CCN1CC[S][99Tc]2(=[O])[S]CC[N]2C(=O)C1 (stereo not shown) [Tc-(Compound A)],43,7.7,≈ 1,–
CCCCN(CCCC)CCN1CC[S][99Tc]2(=[O])[S]CC[N]2C(=O)C1 (stereo not shown) [Tc-(Compound B)],12,7.7,1.9,3.3
